Several values for one entry are separate records, joined by “and”; a condition that tells them apart may be missing. Equal entries are not always repeated.

This experiment addresses T1, Alpha-2B adrenergic receptor (Didelphis virginiana, UniProt O77715).
T1 sequence (O77715 whole entry): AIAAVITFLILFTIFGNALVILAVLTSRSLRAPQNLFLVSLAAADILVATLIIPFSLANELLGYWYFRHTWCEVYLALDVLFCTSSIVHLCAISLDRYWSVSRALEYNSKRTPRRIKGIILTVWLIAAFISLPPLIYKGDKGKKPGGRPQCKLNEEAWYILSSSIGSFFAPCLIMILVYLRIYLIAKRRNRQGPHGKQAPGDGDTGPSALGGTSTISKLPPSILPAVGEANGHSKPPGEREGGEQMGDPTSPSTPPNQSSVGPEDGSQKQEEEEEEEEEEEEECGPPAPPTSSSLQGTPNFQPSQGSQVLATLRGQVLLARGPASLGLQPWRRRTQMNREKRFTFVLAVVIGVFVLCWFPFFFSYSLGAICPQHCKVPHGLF
Usually Ki stands for a dissociation constant, usually derived from enzyme kinetics or from competition with a known ligand. Regarding `Clc1cccc(Cl)c1N=C1NCCN1` [2-(2,6-dichloroanilino)-2-imidazoline], the Ki turned out to be 14 nM. In turn, `O=C(c1ccc(F)cc1)C1CCN(CCn2c(=O)[nH]c3ccccc3c2=O)CC1` [3-(2-{4-[(4-fluorophenyl)carbonyl]piperidin-1-yl}ethyl)-1,2,3,4-tetrahydroquinazoline-2,4-dione] displayed an inhibitory constant (Ki) of 143 nM. Molecule `CNCC(O)c1ccc(O)c(O)c1` (centres undefined) [EPINEPHRINE] gave a Ki of 31 nM. Take `COc1cccc(OC)c1OCCNCC1Oc2ccccc2OC1c1ccccc1` (centres undefined) [NSC_185453]: the Ki worked out at 0.27 nM. To `NCC(O)c1ccc(O)c(O)c1` (stereo not drawn) [Noradrenaline,(+)] belongs 122 nM; to `Cc1ccc(N(CC2=NCCN2)c2cccc(O)c2)cc1` [SMR000059054], 5.6 nM.

For the molecule `Cc1cc(C(C)(C)C)c(O)c(C)c1CC1=NCCN1` [SMR000059324], affinity was put at a Ki of 10 nM. For the molecule `Brc1c(NC2=NCCN2)ccc2nccnc12` [UK 14,304], the Ki is 22 nM. In the case of `COc1cc2nc(N3CCN(C(=O)c4ccco4)CC3)nc(N)c2cc1OC` [[3H]-Minipress], the Ki was 7.4 nM and 7.6 nM.

Values taken from BindingDB's records for PubMed 2894455 (University of Missouri, 1988).
